What was measured:
[1] = system: HCV GT1b replicon cells; assay: HCV replicon assay, GT1b replicon cells (luciferase reporter / NEO gene qPCR); assay type: cell-based; conditions: EC50 range against HCV 1b genotype, 72 hours incubation
Description: (§1) An HCV Replicon assay was utilized in the present disclosure, and was prepared, developed and validated as described in Science, 1999, 285 (5424), 110-3 and J. Virol., 2003, 77 (5), 3007-19.
(§2) HCV GT1a, GT1b and GT2a replicon cells were used to test the currently described compound series as well as wild-type cells HCV 1b and resistant cells Y93H, L31F, P32L and 1302V. GT1a, GT1b and GT2a are HCV Replicon System which is transfected HCV 1a, 1b, 2a genotype respectively. The system containing G418 resistance gene NEO and Luciferase Reporter Gene can be used to determine the level of HCV replication, and evaluate the effects of the compounds inhibiting HCV replication, by using a real-time quantitative polymerase chain reaction (qPCR) method to detect NEO, and chemiluminescence method to test Luciferase Reporter Gene.
(§3) 1. Testing EC50 of the Compounds by Luciferase Assay
(§4) The GT1a cells and GT1b cells were seeded into 96-well plates (8,000 cells in 125 μl/well) respectively; each compound was diluted to desired concentration using 5-fold serial dilutions protocol, 10 dose in duplicate, and added to wells with POD™ 810 Plate Assembler. The final concentration of DMSO was 0.5%; the plates were incubated in a CO2 incubator for 72 hours; after that, 40 μl of Luciferase assay substrate (Promega Bright-Glo) was added to each well, and detected by a chemiluminescence detection system (Topcount Microplate Scintillation and Luminescence Counter) 5 minutes later; data analysis.
(§5) 2. Testing EC50 of the Compounds by Detecting Antibiotic G418 Resistance Gene NEO Gene
(§6) The GT1a cells and GT1b cells were seeded into 96-well plates (8,000 cells in 125 μl/well) respectively; each compound was diluted to desired concentration using 5-fold serial dilutions protocol, 10 dose in duplicate, and added to wells with POD™ 810 Plate Assembler, the final concentration of DMSO was 0.5%; the cells were incubated in a CO2 incubator for 72 hours; quantitative PCR. • Sample preparation: the supernatant was removed, 100 μl of FCW buffer solution was added to each well, washed carefully and discarded the solution; 50 μl of lysate FCP was added to each well, the cells was lysed as PCR template and PCR template was diluted with DEPC water as sample template. • Quantitative PCR: preparation of reaction mixture according to PCR system; the reaction mixture was dispensed into a 384-well PCR reaction plate (specially for quantitative); and a standard template which was diluted in proportion was distributed into the plate; and the sample template was distributed into the plate; then the 384-well plate was sealed with closure plate membrane; the […] PCR machine was operated by procedures; data analysis.
(§7) 3. Data processing: EC50 values of compounds were analyzed by GRAPHPAD PRISM® software.

[2] = system: HCV GT1a replicon cells; assay: HCV replicon assay, GT1a replicon cells (luciferase reporter / NEO gene qPCR); assay type: cell-based; conditions: EC50 range against HCV 1a genotype, 72 hours incubation
Description: as §1, §2, §3, §4, §5, §6, §7

| Compound | EC50 ([1]; Hepatitis C virus, GT1B, 72 h) [nM] | EC50 ([2]; Hepatitis C virus, GT1A) [nM] | EC50 [1] [nM] | EC50 [2] [nM] |
| --- | --- | --- | --- | --- |
| COC(=O)N[C@H](C(=O)N1CCC[C@H]1c1nc2ccc(-c3ccc(-c4ccc5nc([C@@H]6CCCN6C(=O)[C@@H](NC(=O)OC)C(C)C)[nH]c5c4)c4c3CC3(CCCCC3)C4)cc2[nH]1)C(C)C [Example 6] | 0.001 to 0.1 | 0.001 to 0.1 |  |  |
| COC(=O)N[C@H](C(=O)N1CCC[C@H]1c1ncc(-c2ccc(-c3ccc(-c4cnc([C@@H]5CCCN5C(=O)[C@@H](NC(=O)OC)C(C)C)[nH]4)c4c3CC3(CCCC3)C4)s2)[nH]1)C(C)C [Example 17] | > 10 | 0.101 to 1 |  |  |
| COC(=O)N[C@H](C(=O)N1CCC[C@H]1c1nc2ccc(-c3ccc(-c4ccc5nc([C@@H]6CCCN6C(=O)[C@@H](NC(=O)OC)C(C)C)[nH]c5c4)c4c3CC3(CCC(C)CC3)C4)cc2[nH]1)C(C)C [Example 4] | 0.001 to 0.1 | 0.001 to 0.1 |  |  |
| COC(=O)N[C@H](C(=O)N1C[C@@H](C)C[C@H]1c1ncc(-c2ccc(-c3ccc(-c4cnc([C@@H]5C[C@H](C)CN5C(=O)[C@@H](NC(=O)OC)C(C)C)[nH]4)c4c3CC3(CCCCC3)C4)cc2)[nH]1)C(C)C [Example 20] |  |  | 0.101 to 1 | 0.001 to 0.1 |
| CCC(=O)N[C@H](C(=O)N1CCC[C@H]1c1ncc(-c2ccc(-c3ccc(C#Cc4cnc([C@@H]5CCCN5C(=O)[C@@H](NC(=O)OC)C(C)C)[nH]4)c4c3CC3(CCCC3)C4)cc2)[nH]1)C(C)C [Example 24] | 0.001 to 0.1 | 0.001 to 0.1 |  |  |
| COC(=O)N[C@H](C(=O)N1CCC[C@H]1c1ncc(C#Cc2ccc(C#Cc3cnc([C@@H]4CCCN4C(=O)[C@@H](NC(=O)OC)C(C)C)[nH]3)c3c2CC2(CCCC2)C3=O)[nH]1)C(C)C [Example 2] | > 10 | 0.101 to 1 |  |  |
| COC(=O)N[C@H](C(=O)N1CCC[C@H]1c1ncc(-c2ccc(-c3ccc(-c4cnc([C@@H]5CCCN5C(=O)[C@@H](NC(=O)OC)C(C)C)[nH]4)c4c3CC3(CCCC3)C4)cc2)[nH]1)C(C)C [Example 14] | > 10 | 0.001 to 0.1 |  |  |
| CCC(C)[C@H](NC(=O)OC)C(=O)N1C2CC2C[C@H]1c1ncc(-c2ccc(-c3ccc(-c4cnc([C@@H]5CC6CC6N5C(=O)[C@@H](NC(=O)OC)C(C)CC)[nH]4)c4c3CC3(CCCC3)C4)cc2)[nH]1 (stereo partly shown) [Example 43] | > 10 | 0.001 to 0.1 |  |  |
| COC(=O)N[C@H](C(=O)N1C(c2ncc(-c3ccc(-c4ccc(-c5ccc6nc([C@@H]7CC8CC8N7C(=O)[C@@H](NC(=O)OC)C(C)C)[nH]c6c5)c5c4CC4(CCCC4)C5)cc3)[nH]2)CC2CC21)C(C)C (stereo partly shown) [Example 54] | 0.101 to 1 | 0.001 to 0.1 |  |  |
| COC(=O)N[C@H](C(=O)N1CCC[C@H]1c1ncc(-c2ccc(-c3ccc(-c4cnc([C@@H]5CCCN5C(=O)[C@@H](NC(=O)OC)C(C)C)[nH]4)c4c3C(=O)C3(CCCC3)C4)cc2)[nH]1)C(C)C [Example 37] | 1 to 10 | 1 to 10 |  |  |
| COC(=O)N[C@H](C(=O)N1CCCC1C(=O)Nc1cccc(-c2ccc(-c3ccc(-c4cnc([C@@H]5CCCN5C(=O)[C@@H](NC(=O)OC)C(C)C)[nH]4)cc3)c3c2CC2(CCCC2)C3)c1)C(C)C (stereo partly shown) [Example 56] | 1 to 10 | 0.001 to 0.1 |  |  |
| COC(=O)N[C@H](C(=O)N1CCC[C@H]1c1ncc(C#Cc2ccc(C#Cc3cnc([C@@H]4CCCN4C(=O)[C@@H](NC(=O)OC)C(C)C)[nH]3)c3c2CC2(CCCC2)C3)[nH]1)C(C)C [Example 8] | 1 to 10 | 0.001 to 0.1 |  |  |
| COC(=O)N[C@H](C(=O)N1CCC[C@H]1c1ncc(-c2ccc(-c3ccc(-c4ccc5nc([C@@H]6CCCN6C(=O)[C@@H](NC(=O)OC)C(C)C)[nH]c5c4)c4c3C(=O)C3(CCCC3)C4)cc2)[nH]1)C(C)C [Example 36] | 0.001 to 0.1 | 0.001 to 0.1 |  |  |
| COC(=O)N[C@H](C(=O)N1CCC[C@H]1c1nc2ccc(-c3ccc(-c4ccc5nc([C@@H]6CCCN6C(=O)[C@@H](NC(=O)OC)C(C)C)[nH]c5c4)c4c3CC3(CCC(C)CC3)C4=O)cc2[nH]1)C(C)C (stereo partly shown) [Example 3] | 0.001 to 0.1 | 0.001 to 0.1 |  |  |
| COC(=O)N[C@H](C(=O)N1CCC[C@H]1c1ncc(-c2ccc(-c3ccc(-c4cnc([C@@H]5CCCN5C(=O)[C@@H](NC(=O)OC)C(C)C)[nH]4)c4c3CC3(CCCCC3)C4)cc2)[nH]1)C(C)C [Example 50] | 1 to 10 | 0.001 to 0.1 |  |  |
| COC(=O)N[C@H](C(=O)N1CCC[C@H]1c1nc(-c2ccc(-c3ccc(-c4ccc(-c5cnc([C@@H]6CCCN6C(=O)[C@@H](NC(=O)OC)C(C)C)[nH]5)cc4)c4c3C(=O)C3(CCCC3)C4)cc2)c[nH]1)C(C)C [Example 1] | 1 to 10 | 0.001 to 0.1 |  |  |
| COC(=O)N[C@H](C(=O)N1CCC[C@H]1c1nc2ccc(-c3ccc(-c4ccc5nc([C@@H]6CCCN6C(=O)[C@@H](NC(=O)OC)C(C)C)[nH]c5c4)c4c3CC3(CCCCC3)C4=O)cc2[nH]1)C(C)C [Example 5] | 0.101 to 1 | 0.001 to 0.1 |  |  |
| COC(=O)N[C@H](C(=O)N1CC2(CC2)C[C@H]1c1ncc(-c2ccc(-c3ccc(-c4ccc(-c5cnc([C@@H]6CC7(CC7)CN6C(=O)[C@@H](NC(=O)OC)C(C)C)[nH]5)cc4)c4c3CC3(CCCC3)C4)cc2)[nH]1)C(C)C [Example 41] | > 10 | 1 to 10 |  |  |
| COC(=O)N[C@H](C(=O)N1CCC[C@H]1c1ncc(-c2ccc(-c3ccc(-c4ccc(-c5cnc([C@@H]6CCCN6C(=O)[C@@H](NC(=O)OC)C(C)C)[nH]5)cc4)c4c3CC3(CCCC3)C4)cc2)[nH]1)C(C)C [Example 38] | > 10 | 0.101 to 1 |  |  |
| COC(=O)N[C@H](C(=O)N1CCC[C@H]1c1ncc(-c2ccc3cc(-c4ccc(-c5cnc([C@@H]6CCCN6C(=O)[C@@H](NC(=O)OC)C(C)C)[nH]5)c5c4CC4(CCCCC4)C5)ccc3c2)[nH]1)C(C)C [Example 49] | 1 to 10 | 0.001 to 0.1 |  |  |
| COC(=O)N[C@H](C(=O)N1CC(F)(F)C[C@H]1c1ncc(-c2ccc(-c3ccc(-c4cnc([C@@H]5CC(F)(F)CN5C(=O)[C@@H](NC(=O)OC)C(C)C)[nH]4)c4c3CC3(CCCC3)C4)cc2)[nH]1)C(C)C [Example 15] | > 10 | 0.001 to 0.1 |  |  |
| COC(=O)N[C@H](C(=O)N1CCC[C@H]1c1nc2ccc(-c3ccc(-c4ccc5nc([C@@H]6CCCN6C(=O)[C@@H](NC(=O)OC)C(C)C)[nH]c5c4)c4c3CC3(CCCC3)C4)cc2[nH]1)C(C)C [Example 22] | 0.001 to 0.1 | 0.001 to 0.1 |  |  |
| COC(=O)NC(C(=O)N1CC2(C[C@H]1c1ncc(-c3ccc(-c4ccc(-c5cnc([C@@H]6CCCN6C(=O)[C@@H](NC(=O)OC)C(C)C)[nH]5)c5c4CC4(CCCC4)C5)cc3)[nH]1)OCCO2)C(C)C (stereo partly shown) [Example 51] | > 10 | 0.001 to 0.1 |  |  |
| COC(=O)N[C@H](C(=O)N1CCC[C@H]1c1ncc(-c2ccc(-c3ccc(-c4cnc([C@@H]5CCCN5C(=O)[C@@H](NC(=O)OC)c5ccccc5)[nH]4)c4c3CC3(CCCC3)C4)cc2)[nH]1)c1ccccc1 [Example 16] | > 10 | 0.001 to 0.1 |  |  |
| COC(=O)N[C@H](C(=O)N1CCC[C@H]1c1ncc(-c2ccc(-c3ccc(-c4ccc5nc([C@@H]6CCCN6C(=O)[C@@H](NC(=O)OC)C(C)C)[nH]c5c4)c4c3CC3(CCCC3)C4)cc2)[nH]1)C(C)C [Example 23] | 0.001 to 0.1 | 0.001 to 0.1 |  |  |
| COC(=O)N[C@H](C(=O)N1C[C@H](F)C[C@H]1c1ncc(-c2ccc(-c3ccc(-c4cnc([C@@H]5C[C@@H](F)CN5C(=O)[C@@H](NC(=O)OC)C(C)C)[nH]4)c4c3CC3(CCCC3)C4)cc2)[nH]1)C(C)C [Example 29] | 0.001 to 0.1 | 0.001 to 0.1 |  |  |
| COC(=O)N[C@H](C(=O)N1CCC[C@H]1c1ncc(-c2ccc(-c3ccc(-c4ccc5nc([C@@H]6CCCN6C(=O)[C@@H](NC(=O)OC)C(C)C)[nH]c5c4)c4c3CC3(CCCC3)C4)nc2)[nH]1)C(C)C [Example 21] | 1 to 10 | 0.001 to 0.1 |  |  |
| CCC(C)[C@H](NC(=O)OC)C(=O)N1CCC[C@H]1c1nc2ccc(-c3ccc(-c4ccc(-c5cnc([C@@H]6CCCN6C(=O)[C@@H](NC(=O)OC)C(C)C)[nH]5)cc4)c4c3CC3(CCCC3)C4)cc2[nH]1 (stereo partly shown) [Example 11] | 0.001 to 0.1 | 0.001 to 0.1 |  |  |
| COC(=O)N[C@H](C(=O)N1CCCC[C@H]1c1ncc(-c2ccc(-c3ccc(-c4cnc([C@@H]5CCCCN5C(=O)[C@@H](NC(=O)OC)C(C)C)[nH]4)c4c3CC3(CCCC3)C4)cc2)[nH]1)C(C)C [Example 45] | > 10 | 0.001 to 0.1 |  |  |
